# Like-named read-outs stand apart in the source and are kept apart here. Residues, ends and D or L forms follow the SMILES beside them.
# Tests used:
# human plasma kallikrein [1] = target: T1, human plasma kallikrein (Homo sapiens, UniProt P03952); test: Inhibition of human plasma kallikrein, fluorogenic substrate Z-Phe-Arg-AMC; assay type: biochemical; settings: for inhibition of human plasma kallikrein, fold weaker than parental inhibitor PK15: tricyclic peptides
# T1 construct: purchased Innovative Research, Southfiled, USA
# Description: Fluorescence intensities were recorded for 1 hour with excitation and emission wavelengths of 355 nm and 460 nm on a fluorescence plate reader (Molecular Devices, Sunnyvale, USA).
# MDM2 (res 2-125) = MDM2 (res 2-125) (Homo sapiens, UniProt Q00987); test: Fluorescence anisotropy titration, binding to MDM2
# Description: Titration experiments were run on a Horiba Jobin Yvon fluorimeter equipped with the Hamilton Microlab titrator controlled by laboratory software. […] The slit widths for excitation and emission were 5 nm and 15 nm and the integration time 10 s was used for each measurement. The intrinsic fluorescence of tryptophan in peptides 10, 48 was used to measure their binding affinity for MDM2 (res 2-125). The experiments were performed at 23C° in PBS, 5 mM DTT. Usually 250 μl of MDM2 (150 μM) was titrated into 1.2 ml of peptide (1 uM). Titration data were analyzed with a standard 1:1 binding model by using the quadratic solution to the equilibrium Kd=[A][B]/[AB]. […] The fitting equation contained an extra term to account for linear drift.
# MDM2 peptide (res 2-125) = target: T2, MDM2 peptide (res 2-125) (Homo sapiens, UniProt Q00987); test: Competition ELISA of PEP48 phage binding to MDM2; settings: TBMB conjugate
# T2 construct: biotinylated MDM2 peptide (res 2-125) was immobilized on a streptavidin-coated plate
# Excerpt: Phage was detected using an anti-M13-HRP monoclonal antibody (1:5000, Amersham).
# [2] = target: T3, leucyl aminopeptidase from Aeromonas proteolytica (Vibrio proteolyticus, UniProt Q01693); test: Aminopeptidase treatment of peptides (MALDI-TOF); assay type: in vitro ADME
# T3 construct: purchased Sigma A8200
# Description: Peptide 7 before (300 μM) and after (75 μM) MTGase treatment in reaction buffer was incubated with different amounts of leucyl aminopeptidase from Aeromonas proteolytica (EC 3.4.11.10; Sigma, A8200) (3 to 352 ng, corresponding to concentrations of about 50 nM to 6 μM) in a final volume of 2 μl for 30 min at RT. The mass of the peptides was determined by MALDI-TOF mass spectrometry.
# human plasma kallikrein [3] = target: T1, human plasma kallikrein; settings: Heinis et al., 2009; cited from earlier work
# [4] = IC50 After MTGase cyclisation (tricyclic), tricyclic peptides after MTGase treatment
# [5] = IC50 Before MTGase cyclisation (bicyclic), bicyclic TBMB conjugates
# T1 sequence (P03952 391-638 limits assumed): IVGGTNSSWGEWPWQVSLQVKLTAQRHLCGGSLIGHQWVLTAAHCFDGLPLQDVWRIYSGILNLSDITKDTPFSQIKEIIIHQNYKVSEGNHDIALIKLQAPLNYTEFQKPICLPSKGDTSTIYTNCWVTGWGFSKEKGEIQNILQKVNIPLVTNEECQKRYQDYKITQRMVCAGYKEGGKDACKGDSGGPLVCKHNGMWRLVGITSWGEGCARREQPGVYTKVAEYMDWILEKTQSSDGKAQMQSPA
# T1 sequence (P03952 20-390 partner limits assumed): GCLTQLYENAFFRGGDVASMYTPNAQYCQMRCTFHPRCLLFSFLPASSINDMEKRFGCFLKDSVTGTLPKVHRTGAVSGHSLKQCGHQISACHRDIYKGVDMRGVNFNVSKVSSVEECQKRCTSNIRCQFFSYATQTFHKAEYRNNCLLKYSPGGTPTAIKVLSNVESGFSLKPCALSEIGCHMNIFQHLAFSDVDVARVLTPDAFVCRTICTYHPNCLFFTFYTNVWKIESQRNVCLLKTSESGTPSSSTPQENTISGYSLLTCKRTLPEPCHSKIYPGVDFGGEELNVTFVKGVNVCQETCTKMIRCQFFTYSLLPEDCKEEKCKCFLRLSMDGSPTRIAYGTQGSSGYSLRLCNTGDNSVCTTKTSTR
# Sequence of MDM2 (res 2-125) (Q00987 2-125): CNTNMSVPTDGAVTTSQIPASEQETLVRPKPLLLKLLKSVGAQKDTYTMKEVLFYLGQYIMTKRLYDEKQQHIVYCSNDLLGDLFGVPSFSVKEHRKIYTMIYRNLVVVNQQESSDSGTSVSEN
# T3 sequence (Q01693 107-405 limits assumed): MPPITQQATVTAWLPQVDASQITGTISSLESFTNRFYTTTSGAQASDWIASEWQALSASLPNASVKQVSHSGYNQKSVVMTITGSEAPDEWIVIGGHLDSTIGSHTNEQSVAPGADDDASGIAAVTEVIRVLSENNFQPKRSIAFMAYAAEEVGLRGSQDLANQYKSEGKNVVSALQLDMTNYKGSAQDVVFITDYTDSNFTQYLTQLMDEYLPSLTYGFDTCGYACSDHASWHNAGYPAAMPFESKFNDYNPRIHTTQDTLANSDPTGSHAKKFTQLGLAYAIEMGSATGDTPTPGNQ
# T2 sequence (Q00987 2-125): as the sequence (Q00987 2-125) above
Molecule,IC50 (human plasma kallikrein [1]; [4]) [nM],IC50 (human plasma kallikrein [1]; [5]) [nM],"inhibition of human plasma kallikrein, fold weaker than parental inhibitor PK15 (human plasma kallikrein [1])",affinity of synthetic peptide for MDM2 (MDM2 (res 2-125)),also measured
"CC(C)C[C@@H]1NC(=O)[C@H](C)NC(=O)[C@H](CCC(=O)O)NC(=O)[C@H](CC(=O)O)NC(=O)[C@H](C)NC(=O)[C@@H]2CCCN2C(=O)[C@@H]2CSCc3cc(cc(c3)CSC[C@@H](C(=O)N[C@@H](C)C(=O)N[C@@H](CCCCN)C(=O)N[C@@H](CO)C(N)=O)NC1=O)CSC[C@H](NC(=O)[C@H](C)NC(=O)[C@H](CCC(N)=O)NC(=O)[C@H](CC(C)C)NC(=O)[C@H](C)NC(=O)[C@@H](N)Cc1c[nH]c3ccccc13)C(=O)N[C@@H](CO)C(=O)N[C@@H](CC(=O)O)C(=O)N[C@@H](CCCNC(=N)N)C(=O)N[C@@H](Cc1ccccc1)C(=O)N[C@@H](CCCNC(=N)N)C(=O)N[C@@H](CC(N)=O)C(=O)N2 [peptide 8] (HELM PEPTIDE1{W.A.L.Q.A.C.S.D.R.F.R.N.C.P.A.D.E.A.L.C.A.K.S.[am]}|CHEM1{[c1c(C[*:1])cc(C[*:3])cc1C[*:2]]}$PEPTIDE1,CHEM1,6:R3-1:R1|PEPTIDE1,CHEM1,13:R3-1:R2|PEPTIDE1,CHEM1,20:R3-1:R3$$$V2.0)",196,185,about 70 fold,–,–
"H-SCVRFGWTCDNSWHGCKG-OH (cysteine pairing not given here) [PEP48, bicyclic peptide selected against MDM2]",–,–,–,micromolar or better,"Kd (MDM2 (res 2-125); entire bicyclic peptide, read-out: binding affinity (Kd) for MDM2): 500 to 800 nM; Kd (MDM2 (res 2-125); measured λex=280 nm, read-out: Kd, peptide + MDM2): 760 nM; Kd (MDM2 (res 2-125); measured λex=295 nm, read-out: Kd, peptide + MDM2): 567 nM; binding site on MDM2 by competition ELISA (MDM2 peptide (res 2-125)): bind to the same site as a linear peptide previously shown to block the p53-MDM2 interaction"
"CC(C)C[C@H](NC(=O)[C@H](C)N)C(=O)N[C@@H](CCC(N)=O)C(=O)N[C@@H](C)C(=O)N[C@H]1CSCc2cc3cc(c2)CSC[C@H](NC(=O)[C@H](CC(N)=O)NC(=O)[C@H](CCCNC(=N)N)NC(=O)[C@H](Cc2ccccc2)NC(=O)[C@H](CCCNC(=N)N)NC(=O)[C@H](CC(=O)O)NC(=O)[C@H](CO)NC1=O)C(=O)N1CCC[C@H]1C(=O)N[C@@H](C)C(=O)N[C@@H](CC(=O)O)C(=O)N[C@@H](CCC(=O)O)C(=O)N[C@@H](C)C(=O)N[C@@H](CC(C)C)C(=O)N[C@H](C(=O)N[C@@H](C)C(=O)N[C@@H](CCCCN)C(=O)N[C@@H](CO)C(N)=O)CSC3 [peptide 7] (HELM PEPTIDE1{A.L.Q.A.C.S.D.R.F.R.N.C.P.A.D.E.A.L.C.A.K.S.[am]}|CHEM1{[c1c(C[*:1])cc(C[*:3])cc1C[*:2]]}$PEPTIDE1,CHEM1,5:R3-1:R1|PEPTIDE1,CHEM1,12:R3-1:R2|PEPTIDE1,CHEM1,19:R3-1:R3$$$V2.0)",200,259,about 70 fold,–,"amount of exopeptidase at which exocyclic amino acids (Ala-Leu-Gln-Ala) were degraded ([2]; bicyclic peptide, 30 min at RT): ≥ 70 ng; exopeptidase needed to degrade the Gln-Ala dipeptide ([2]; tricyclic peptide, compared with bicyclic): higher exopeptidease concentrations were required"
"CC(C)C[C@@H]1NC(=O)[C@H](CCC(=O)O)NC(=O)[C@@H](NC(=O)[C@@H](N)CO)CSCc2cc3cc(c2)CSC[C@H](NC(=O)[C@H](CCCCN)NC(=O)[C@@H]2CCCN2C(=O)[C@H](CC(N)=O)NC(=O)[C@H](Cc2c[nH]c4ccccc24)NC1=O)C(=O)N[C@@H](CCCNC(=N)N)C(=O)N[C@@H](CC(C)C)C(=O)N[C@@H](CO)C(=O)N1CCC[C@H]1C(=O)N[C@@H](Cc1ccccc1)C(=O)N[C@@H](CCC(=O)O)C(=O)N[C@H](C(=O)N[C@@H](CCCCN)C(=O)NCC(=O)O)CSC3 [PEP10] (HELM PEPTIDE1{S.C.E.L.W.N.P.K.C.R.L.S.P.F.E.C.K.G}|CHEM1{[c1c(C[*:1])cc(C[*:3])cc1C[*:2]]}$PEPTIDE1,CHEM1,2:R3-1:R1|PEPTIDE1,CHEM1,9:R3-1:R2|PEPTIDE1,CHEM1,16:R3-1:R3$$$V2.0; bridges inferred)",–,–,–,micromolar or better,–
"[H][C@@]12CCCN1C(=O)[C@]1([H])CSCc3cc(cc(c3)CSC[C@@H](C(=O)NCC(N)=O)NC(=O)[C@H](CC(C)C)NC(=O)[C@H](C)NC(=O)[C@H](CCC(=O)O)NC(=O)[C@H](CC(=O)O)NC(=O)[C@H](C)NC2=O)CSC[C@H](NC(=O)[C@H](C)N)C(=O)N[C@@H](CO)C(=O)N[C@@H](CC(=O)O)C(=O)N[C@@H](CCCNC(=N)N)C(=O)N[C@@H](Cc2ccccc2)C(=O)N[C@@H](CCCNC(=N)N)C(=O)N[C@@H](CC(N)=O)C(=O)N1 [PK15, reference compound] (HELM PEPTIDE1{A.C.S.D.R.F.R.N.C.P.A.D.E.A.L.C.G.[am]}|CHEM1{[c1c(C[*:1])cc(C[*:3])cc1C[*:2]]}$PEPTIDE1,CHEM1,2:R3-1:R1|PEPTIDE1,CHEM1,9:R3-1:R2|PEPTIDE1,CHEM1,16:R3-1:R3$$$V2.0)",–,3,–,–,factor of activity reduction on C-terminal conjugation to a protein (human plasma kallikrein [3]): around 10

# — patent US20120101253A1, “STRUCTURED POLYCYCLIC PEPTIDE” (priority 2009, published 2012)
